Experimental data: patent US5637582A, “Peripheral circulation improving agent” (priority 1992, dated 1997)
Counter-ions that a name gives are not always drawn.

How the values were obtained:
femoral artery [1] = assay: Increase in femoral arterial blood flow in anesthetized dogs, cumulative i.v. dosing (Experimental Example 1); assay type: in vivo, dog; settings: 60 min after administration
Protocol: (§1) Adult dogs (one group consisting of a dog) were intravenously given the test compound under anesthesia and artificial respiration successively at intervals of 60 minutes so that the dose can be 10, 30, 100 and 300 μg/kg body weight, and the blood flow of femoral artery was measured with a time course. […] An increase in the femoral arterial blood flow was calculated by subtracting the blood flow before the administration of the first dose of test compound as the standard value (the base line) from that 60 minutes after each administration.

femoral artery [2] = assay: Maximum increase in femoral arterial blood flow in anesthetized dogs, cumulative i.v. dosing (Experimental Example 3); assay type: in vivo, dog; settings: maximum during 60 min
Protocol: as §1, with “consisting of 5 dogs) were intravenously” for “consisting of a dog) were intravenously”, “10, 30, 100, 300 and 1000” for “10, 30, 100 and 300”, “300 and 1000 μg/kg body” for “100 and 300 μg/kg body”, “from that of maximum during an interval of 60 minutes” for “from that 60 minutes”

hind leg edema = assay: Hind leg frostbite model: model of Raynaud's disease (Experimental Example 7); assay type: in vivo, male SD rat; settings: for % Inhibition of edema / Edema: 30 mg/kg, orally twice a day for 6 days; for edema inhibition activity: rat hind leg frostbite model, in words
Protocol: (Hind leg frostbite model: Model of Raynaud's disease)
Left hind leg of male SD rat (one group: 3 to 5 rats) was dipped in dry ice-ethanol for 2 seconds, and after 30 minutes, 30 mg/kg of a test compound dissolved in pure water was administered to the rat and then orally administered twice a day for 6 days continuously. At the final day of the experiment, volumes of both hind legs (below ankle joint) of the rat were measured by a water substitution method and an edema ratio was calculated from the following equation. Also, an inhibition ratio of the test compound administered group was obtained by comparing the edema ratio of the group in which the test compound was not administered. [formula]
The present model is disclosed, for example, in Hayashi et al, "Pharmacological Studies on Niceritrol (10), The Effects on Experimental Models of Peripherally Circulatory Insufficiency", Applied Pharmacology, 24 (6): 859-864 (1982), noting particularly the section "2. Effect on an experimental frostbite model" on page 860.

arterial blood pressure = assay: Change of arterial blood pressure in anesthetized dogs (Experimental Example 4); settings: 100 μg/kg i.v.
Protocol: (§2) Each test compound was intravenously administered to adult dogs (one group consisting of 2 or 4 dogs) under anesthesia and artificial respiration at a dose of 100 μg/kg body weight. Femoral arterial blood flow, vertebral arterial blood flow and arterial blood pressure were measured 1, 3, 5, 10, 20 and 30 minutes after the administration. The femoral arterial blood flow and vertebral arterial blood flow were measured with an electromagnetic blood flowmeter (manufactured by Nihon Koden, MFV-2100, trade name) through a flow probe attached to the femoral artery or vertebral artery. The arterial blood pressure was measured with a pressure transducer (manufactured by Millar, MICRO-TIP, Model SPC-350) through a catheter attached to the brachial artery.
(§3) Changes of the femoral arterial blood flow, vertebral arterial blood flow and arterial blood pressure were estimated by comparing the values measured before and after the administration of the test compound.

femoral artery [3] = assay: Change of femoral arterial blood flow in anesthetized dogs (Experimental Example 4); assay type: in vivo, dog; settings: 100 μg/kg i.v.; for AUC60 of the femoral arterial blood flow: 60 minutes after administration; for Increase in femoral arterial blood flow: 10 minutes after the administration
Protocol: as §2, §3

vertebral artery = assay: Change of vertebral arterial blood flow in anesthetized dogs (Experimental Example 4); settings: 100 μg/kg i.v.
Protocol: as §2, §3

[4] = G and H: one minute after, in words

Structure (SMILES)	Increase in femoral arterial blood flow (femoral artery [1]; 10 μg/kg i.v.)	Increase in femoral arterial blood flow (femoral artery [1]; 30 μg/kg i.v.)	Increase in femoral arterial blood flow (femoral artery [1]; 100 μg/kg i.v.)	Increase in femoral arterial blood flow (femoral artery [1]; 300 μg/kg i.v.)	Increase in femoral arterial blood flow (femoral artery [2]; 30 μg/kg i.v.)	Increase in femoral arterial blood flow (femoral artery [2]; 100 μg/kg i.v.)	Increase in femoral arterial blood flow (femoral artery [2]; 300 μg/kg i.v.)	Increase in femoral arterial blood flow (femoral artery [2]; 1000 μg/kg i.v.)	Arterial Blood Pressure change (side effects) (arterial blood pressure; 1 min)	Arterial Blood Pressure change (side effects) (arterial blood pressure; 3 min)	Arterial Blood Pressure change (side effects) (arterial blood pressure; 5 min)	Arterial Blood Pressure change (side effects) (arterial blood pressure; 10 min)	Arterial Blood Pressure change (side effects) (arterial blood pressure; 20 min)	Arterial Blood Pressure change (side effects) (arterial blood pressure; 30 min)	Femoral Arterial Blood Flow change (femoral artery [3]; 3 min)	Femoral Arterial Blood Flow change (femoral artery [3]; 5 min)	Femoral Arterial Blood Flow change (femoral artery [3]; 10 min)	Femoral Arterial Blood Flow change (femoral artery [3]; 20 min)	Femoral Arterial Blood Flow change (femoral artery [3]; 30 min)	AUC60 of the femoral arterial blood flow (femoral artery [3])	further results
Cc1ccc([C@H]2Sc3cc(C)ccc3N(CCN(C)C)C(=O)[C@H]2O)cc1 [B]	22 mL/min	28 mL/min	48 mL/min	74 mL/min	16.4 mL/min	41.4 mL/min	70.2 mL/min	79.2 mL/min	–	–	–	–	–	–	–	–	–	–	–	–	Increase in femoral arterial blood flow (femoral artery [2]; 10 μg/kg i.v.): 10.4 mL/min
CNCCN1C(=O)[C@@H](OC(C)=O)[C@@H](c2ccc(C)cc2)Sc2cc(C)ccc21 [C]	6 mL/min	19 mL/min	50 mL/min	65 mL/min	6.8 mL/min	25.6 mL/min	44.6 mL/min	49.0 mL/min	–	–	–	–	–	–	–	–	–	–	–	–	–
CC(=O)O[C@@H]1C(=O)N(CCN(C)C)c2ccc(CO)cc2S[C@@H]1c1ccc(C)cc1 [Compound E, (-)-cis-2-(4-methylphenyl)-3-acetoxy-5-[2-(dimethylamino)ethyl]-8-hydroxymethyl-2,3-dihydro-1,5-benzothiazepin-4(5H)-one oxalate]	–	15 mL/min	37 mL/min	36 mL/min	15.6 mL/min	55.6 mL/min	69.2 mL/min	68.6 mL/min	–	–	–	–	–	–	–	–	–	–	–	–	–
Clc1ccccc1CN1CCc2sccc2C1 [Compound K, ticlopidine]	–	–	–	–	–	–	–	–	–	–	–	–	–	–	–	–	–	–	–	–	% Inhibition of edema (hind leg edema): -9%; Edema (hind leg edema): 48 ± 2%; edema inhibition activity (hind leg edema): did not show any edema inhibition activity
CC(=O)Oc1ccccc1C(=O)O [Compound L, acetyl salicylic acid]	–	–	–	–	–	–	–	–	–	–	–	–	–	–	–	–	–	–	–	–	% Inhibition of edema (hind leg edema): -25%; Edema (hind leg edema): 55 ± 8%; edema inhibition activity (hind leg edema): did not show any edema inhibition activity
CNCCN1C(=O)[C@@H](O)[C@@H](c2ccc(C)cc2)Sc2cc(C)ccc21 [D]	–	–	11 mL/min	35 mL/min	–	–	–	–	–	–	–	–	–	–	–	–	–	–	–	–	–
COc1ccc([C@H]2Sc3ccccc3N(CCN(C)C)C(=O)[C@H]2OC(C)=O)cc1 [F]	11 mL/min	21 mL/min	27 mL/min	37 mL/min	21.0 mL/min	27.3 mL/min	37.0 mL/min	–	-1.5 ΔmmHg	-0.5 ΔmmHg	1.0 ΔmmHg	1.5 ΔmmHg	1.5 ΔmmHg	2.5 ΔmmHg	36.0 Δ ml/min	48.0 Δ ml/min	63.5 Δ ml/min	64.5 Δ ml/min	54.5 Δ ml/min	2977.0 mL	Increase in femoral arterial blood flow (femoral artery [2]; 10 μg/kg i.v.): 10.7 mL/min; femoral arterial blood flow increasing activity (femoral artery [3]; even after 30 minutes, in words): excellent femoral arterial blood flow increasing activity; Vertebral Arterial Blood Flow change (side effects) (vertebral artery; 1 min): -0.5 Δ ml/min; Vertebral Arterial Blood Flow change (side effects) (vertebral artery; 3 min): -1.0 Δ ml/min; Vertebral Arterial Blood Flow change (side effects) (vertebral artery; 5 min): -1.0 Δ ml/min; Vertebral Arterial Blood Flow change (side effects) (vertebral artery; 10 min): 0.0 Δ ml/min; Vertebral Arterial Blood Flow change (side effects) (vertebral artery; 20 min): 0.0 Δ ml/min; Vertebral Arterial Blood Flow change (side effects) (vertebral artery; 30 min): 0.5 Δ ml/min
CC(=O)O[C@H]1C(=O)N(CCN(C)C)c2ccc(C)cc2S[C@H]1c1ccc(C)cc1 [G, reference compound]	–	–	–	–	–	–	–	–	-11.0 ΔmmHg	-2.5 ΔmmHg	1.5 ΔmmHg	1.0 ΔmmHg	1.0 ΔmmHg	1.5 ΔmmHg	24.0 Δ ml/min	16.0 Δ ml/min	9.5 Δ ml/min	7.5 Δ ml/min	5.0 Δ ml/min	475.3 mL	effect on arterial blood pressure (arterial blood pressure; [4]): remarkable changes; Femoral Arterial Blood Flow change (femoral artery [3]; 1 min): 30.0 Δ ml/min; Increase in femoral arterial blood flow (femoral artery [3]; in words): substantially disappeared; Vertebral Arterial Blood Flow change (side effects) (vertebral artery; 1 min): 26.5 Δ ml/min; Vertebral Arterial Blood Flow change (side effects) (vertebral artery; 3 min): 18.0 Δ ml/min; Vertebral Arterial Blood Flow change (side effects) (vertebral artery; 5 min): 11.5 Δ ml/min; Vertebral Arterial Blood Flow change (side effects) (vertebral artery; 10 min): 7.0 Δ ml/min; Vertebral Arterial Blood Flow change (side effects) (vertebral artery; 20 min): 3.5 Δ ml/min; Vertebral Arterial Blood Flow change (side effects) (vertebral artery; 30 min): 2.5 Δ ml/min; effect on vertebral arterial blood flow (vertebral artery; [4]): remarkable changes
COc1ccc([C@@H]2Sc3ccccc3N(CCN(C)C)C(=O)[C@@H]2OC(C)=O)cc1 [H, reference compound]	–	–	–	–	–	–	–	–	-11.5 ΔmmHg	-4.5 ΔmmHg	-2.0 ΔmmHg	-1.0 ΔmmHg	0.0 ΔmmHg	1.0 ΔmmHg	34.5 Δ ml/min	22.5 Δ ml/min	8.0 Δ ml/min	1.0 Δ ml/min	-1.5 Δ ml/min	300.5 mL	Femoral Arterial Blood Flow change (femoral artery [3]; 1 min): 38.5 Δ ml/min; Increase in femoral arterial blood flow (femoral artery [3]; in words): substantially disappeared; Vertebral Arterial Blood Flow change (side effects) (vertebral artery; 1 min): 25.5 Δ ml/min; Vertebral Arterial Blood Flow change (side effects) (vertebral artery; 3 min): 18.0 Δ ml/min; Vertebral Arterial Blood Flow change (side effects) (vertebral artery; 5 min): 13.5 Δ ml/min; Vertebral Arterial Blood Flow change (side effects) (vertebral artery; 10 min): 7.5 Δ ml/min; Vertebral Arterial Blood Flow change (side effects) (vertebral artery; 20 min): 4.5 Δ ml/min; Vertebral Arterial Blood Flow change (side effects) (vertebral artery; 30 min): 2.0 Δ ml/min
